Data published in patent publication US20230139593A1, “TREATMENT OF DISORDERS ASSOCIATED WITH OXIDATIVE STRESS AND COMPOUNDS FOR SAME” (The University of Adelaide, priority 2020, published 2023).
Counter-ions that a name gives are not always drawn.

How the values were obtained:
NRF2/ARE = NRF2/ARE responsive luciferase reporter assay in HEK293 cells; format: cell-based; conditions: 16 h; for NRF2 activity relative to MMF: 0-100 μM; for NRF2 activity in the presence of H2O2 or ONOO− compared to media control: 10 μM H2O2 or 10 μM ONOO−, 0-100 μM compound
Method: (§1) NRF2/ARE responsive luciferase reporter HEK293 cells (Signosis, Santa Clara, USA) were seeded at 1×10^5 cells/well in 48-well plates (Corning, Tewksbury, USA) in supplemented Dulbecco's Modified Eagle Medium (DMEM) containing 4.5 g/L glucose (HyClone, Pittsburgh, USA) (10% fetal bovine serum (FBS) (ThermoFisher Scientific, Waltham, USA) and 1% penicillin/streptomycin (Gibco, Waltham, USA)) and cultured overnight at 37° C., 5% CO2, in a humidified environment. The next morning, the media was replaced with supplemented DMEM (1% FBS (ThermoFisher Scientific) and 1% penicillin/streptomycin (Gibco)). Cells were then treated with a concentration range of each example of compounds described in the invention or monomethyl fumarate (0-100 μM), together with 10 μM hydrogen peroxide (H2O2) (Sigma Aldrich, St Louis, USA), 10 μM peroxynitrite (PN) (Sigma Aldrich), or supplemented media (negative control). tert-Butylhydroquinone (tBHQ; 10 μM) (Sigma-Aldrich) was used as positive control. Each condition was run in triplicate and observations confirmed over at least two additional replications.
After 16 h of incubation with examples of compounds described in the invention and ROS/RNS, cells were washed gently with 500 μL PBS (Sigma-Aldrich) and then incubated in 40 μL passive lysis buffer (Promega, Madison, USA) at room temperature. After 20 mins, 30 μL was transferred from each well to a 96-well clear-bottom, white-wall plate (Corning). Luciferase substrate (Signosis; 150 μL) was added to each well and gently mixed. Luminesence was immediately read on a Synergy HTX multi-mode microplate reader (BioTek, Winooski, USA).
Differences between in vitro concentration-response relationships were determined by comparing the slopes of fitted functions for shared parameters. Linear models were selected as the pharmacologically-relevant concentrations tested were within the linear range of the concentration-response functions. Mechanical allodynia was analyzed as the interpolated 50% thresholds (absolute threshold). One-way ANOVA was used to confirm that there were no baseline differences in absolute thresholds or dynamic scores between treatment groups. Differences between treatment groups for behavior were determined using repeated measures two-way ANOVA, followed by Tukey's or Sidaks post hoc tests. Biochemical data were analyzed by one- or two-way ANOVA, followed by Tukey's post hoc tests. Results are expressed as mean±standard deviation (SD). P<0.05 was considered statistically significant.

[1] = system: NRF2/ARE luciferase reporter HEK293 cells; assay: Cytotoxicity in the reporter cell assay; format: cell-based
Method: as §1

[2] = system: spared nerve injury (SNI) model of neuropathic pain; assay: Tactile allodynia (von Frey test) after spared nerve injury; format: in vivo, mice; conditions: for tactile allodynia: 350 μmol/kg oral, daily for 3 days, SNI mice, ipsilateral paw
Method: Pathogen-free adult male and female C57BL/6J mice (8 weeks old on arrival; The Jackson Laboratory, Bar Harbor, USA) were used. Mice were housed five per cage in a light- and temperature-controlled room (12:12-h light-dark cycle, light on at 7:00 AM) with food and water available ad libitum. All procedures were approved by the MD Anderson Cancer Center Animal Care and Use Committee. SNI was performed under inhaled isoflurane anesthesia. The tibial and common peroneal nerves were isolated, tightly ligated with 6-0 silk, and transected immediately distal to the ligation. The sural nerve was left intact. Animals were monitored post-operatively until fully ambulatory prior to return to their home cage. Compounds were suspended with methylcellulose (viscosity 15 cP, 2% w/v in water;) and administered by oral gavage. For SNI anti-nociception, compounds were administered for 3 days (350 μmol/kg/day), beginning 7 days after SNI, and continuing for 3 (reflex tests) or 7 days (conditioned place preference tests). For leukopenia assessment, compounds were administered to naïve mice for 10 days (350 μmol/kg/day). Equivolume methylcellulose (2% w/v) was used as vehicle control for all compounds. An independent investigator dosed the mice in order to maintain blinding to treatment groups for the other investigators who performed the behavioral testing. Testing was conducted blind with respect to group assignment. […] Tactile allodynia was measured using the von Frey test. The 50% paw withdrawal threshold was determined using the “up-down” method. Differences between in vitro concentration-response relationships were determined by comparing the slopes of fitted functions for shared parameters. […] Mechanical allodynia was analyzed as the interpolated 50% thresholds (absolute threshold). […] Differences between treatment groups for behavior were determined using repeated measures two-way ANOVA, followed by Tukey's or […] post hoc tests. Biochemical data were analyzed by one- or two-way ANOVA, followed by Tukey's post hoc tests. Results are expressed as mean±standard deviation (SD). […]

[3] = system: spared nerve injury (SNI) model of neuropathic pain; assay: Dynamic allodynia (paintbrush stroking) after spared nerve injury; format: in vivo; conditions: 350 μmol/kg oral, daily for 3 days, SNI mice, ipsilateral paw
Method: Pathogen-free adult male and female C57BL/6J mice (8 weeks old on arrival; The Jackson Laboratory, Bar Harbor, USA) were used. Mice were housed five per cage in a light- and temperature-controlled room (12:12-h light-dark cycle, light on at 7:00 AM) with food and water available ad libitum. All procedures were approved by the MD Anderson Cancer Center Animal Care and Use Committee. SNI was performed under inhaled isoflurane anesthesia. The tibial and common peroneal nerves were isolated, tightly ligated with 6-0 silk, and transected immediately distal to the ligation. The sural nerve was left intact. Animals were monitored post-operatively until fully ambulatory prior to return to their home cage. […] Dynamic mechanical hypersensitivity was measured by light stroking (velocity is 2 cm/s) of the external lateral side of the injured hind paw in the direction from heel to toe with a paintbrush. The paw withdrawal response was scored according to the following criteria, score=0: walking away or occasionally very brief paw lifting […]; score=1: sustained lifting (>2 s) of the stimulated paw toward the body; score=2: a strong lateral lifting above the level of the body; score=3: flinching or licking of the affected paw. […] Differences between in vitro concentration-response relationships were determined by comparing the slopes of fitted functions for shared parameters. […]

[4] = system: spared nerve injury (SNI) model of neuropathic pain; assay: Conditioned place preference assay (spontaneous pain) after spared nerve injury; format: in vivo; conditions: 350 μmol/kg oral, daily for 7 days, nerve-injured mice
Method: Pathogen-free adult male and female C57BL/6J mice (8 weeks old on arrival; The Jackson Laboratory, Bar Harbor, USA) were used. Mice were housed five per cage in a light- and temperature-controlled room (12:12-h light-dark cycle, light on at 7:00 AM) with food and water available ad libitum. All procedures were approved by the MD Anderson Cancer Center Animal Care and Use Committee. SNI was performed under inhaled isoflurane anesthesia. The tibial and common peroneal nerves were isolated, tightly ligated with 6-0 silk, and transected immediately distal to the ligation. The sural nerve was left intact. Animals were monitored post-operatively until fully ambulatory prior to return to their home cage. Compounds were suspended with methylcellulose (viscosity 15 cP, 2% w/v in water;) and administered by oral gavage. For SNI anti-nociception, compounds were administered for 3 days (350 μmol/kg/day), beginning 7 days after SNI, and continuing for 3 (reflex tests) or 7 days (conditioned place preference tests). For leukopenia assessment, compounds were administered to naïve mice for 10 days (350 μmol/kg/day). Equivolume methylcellulose (2% w/v) was used as vehicle control for all compounds. An independent investigator dosed the mice in order to maintain blinding to treatment groups for the other investigators who performed the behavioral testing. […] The time spent in the light chamber was recorded. […]

leukocytes = assay: Absolute leukocyte count in naive mice; format: in vivo; conditions: 350 μmol/kg oral, daily for 10 days
Method: Compounds were suspended with methylcellulose (viscosity 15 cP, 2% w/v in water;) and administered by oral gavage. For SNI anti-nociception, compounds were administered for 3 days (350 μmol/kg/day), beginning 7 days after SNI, and continuing for 3 (reflex tests) or 7 days (conditioned place preference tests). For leukopenia assessment, compounds were administered to naïve mice for 10 days (350 μmol/kg/day). Equivolume methylcellulose (2% w/v) was used as vehicle control for all compounds. An independent investigator dosed the mice in order to maintain blinding to treatment groups for the other investigators who performed the behavioral testing.
Leukocytes from cardiac blood were stained with Turk's solution according to manufacturer instructions, and manually counted on a hemocytometer by an experimenter who was blinded to treatment conditions.

[5] = measured, Arch Dermatol Res. 2010, 302(7), 531-8; cited from earlier work

SMILES	NRF2 activity relative to MMF (NRF2/ARE)	NRF2 activity in the presence of H2O2 or ONOO− compared to media control (NRF2/ARE)	tactile allodynia [2]	dynamic allodynia [3]	spontaneous pain: preference for the retigabine-paired light chamber [4]	further results
COC(=O)/C=C/C(=O)C(=O)NCc1ccccc1 [Example C, methyl (2E)-4-(benzylcarbamoyl)-4-oxobut-2-enoate]	activated NRF2 to a greater extent than MMF	did not selectively increase NRF2 activity				cytotoxic concentration [1]: above 50 μM
COC(=O)/C=C/C(=O)C(=O)O [Example J, (3E)-5-methoxy-2,5-dioxopent-3-enoic acid]			reversed	reversed		
COC(=O)/C=C/C(=O)C(=O)c1ccccc1 [Example D, methyl (2E)-4,5-dioxo-5-phenylpent-2-enoate]	at lower levels than MMF	increased NRF2 activity in the presence of H2O2 or ONOO^−				
COC(=O)/C=C/C(=O)C(=O)OC [Example A, 1,5-dimethyl (2E)-4-oxopent-2-enedioate]		increased NRF2 activity in the presence of H2O2 or ONOO^−	reversed	reversed	did not develop a preference for the retigabine-paired light chamber	toxicity in the concentration range tested ([1]; 0-100 μM): no toxicity in the concentration range tested; efficacy on tactile and dynamic allodynia relative to diroximel fumarate ([2]; 350 μmol/kg oral each, 3 days, both measures): greater efficacy than diroximel fumarate; absolute leukocyte count (leukocytes): did not cause a decline in absolute leukocyte count
COC(=O)/C=C/C(=O)OCCN1C(=O)CCC1=O [diroximel fumarate, reference compound]					did not develop a preference for the retigabine-paired light chamber	
COC(=O)/C=C/C(=O)O [MMF, monomethyl fumarate]						pKa [5]: 3.63
